For this experiment, the system named is Drosophila melanogaster (Oregon wild strain). Kind of experiment: Life extending experiments with Drosophila (lifespan study). The following applies: for Mean Lifespan: from age of 15 days on. The class given is in vivo. The procedure:
Drosophila melanogaster (Oregon wild strain) were used for lifespan study. Flies were reared in a light/dark cycle of 12:12 hours at a temperature of 25° C. and 65% relative humidity. Drosophila were fed with a standard medium consisting of 170 g of corn flour, 15 g of agar, 15 g of yeast, 10 ml of 100% propionic acid, 130 g of sucrose, and 2000 ml of water.
One-day-old Drosophila were transferred to plastic vials (25×100 mm) containing 2 ml of the diet medium, which was replaced every 3 days. 10 flies from each gender were kept in one vial. Hydroxytyrosol was provided in the diet to Drosophila from age of 15 days on. The Drosophilae were counted every 3 days until all flies died. Survivals were calculated at the end of the experiments after correcting total loss incurred from handling (Phillips J P, Campbell S D, Michaud D, Charbonneau M, Hilliker A J, Proc Natl Acad Sci USA. 1989, 86(8), 2761-2765: “Null mutation of copper/zinc superoxide dismutase in Drosophila confers hypersensitivity to paraquat and reduced longevity.”). The mean lifespan was calculated according to the method described by Cui X, Dai X G, Li W B, Zhang B L, Fang Y Z in Am. J. Chin. Med. 1999, 27(3-4), 407-413: “Effects of lu-duo-wei capsule on prolonging life span of housefly and Drosophila melanogaster.”

The values below come from patent US20100113612A1, “NOVEL USE OF HYDROXYTYROSOL AND OLIVE EXTRACTS/CONCENTRATE CONTAINING IT” (priority 2007, published 2010).

With `OCCc1ccc(O)c(O)c1` [Hydroxytyrosol, 3,4-dihydroxyphenylethanol], the “% Increase of lifespan compared to control” value runs as follows: (1 mg/100 g in the diet) 8.23%; (5 mg/100 g in the diet) 11.55%; (10 mg/100 g in the diet) 3.89%; (20 mg/100 g in the diet) 6.97%; (50 mg/100 g in the diet) 4.02%. For the same compound, the “Mean Lifespan” value was 75.14 days (1 mg/100 g in the diet); 77.44 days (5 mg/100 g in the diet); 72.12 days (10 mg/100 g in the diet); 74.26 days (20 mg/100 g in the diet); 72.21 days (50 mg/100 g in the diet). Where the note is “male Drosophila, 5 mg/100 g diet”, the “lifespan extension (best effect)” value was 11.5%.
